Read-outs that look alike come from different tables or passages of the source. Each block holds one compound with its values, some of them ahead of it.
How the values were obtained:
[1] = Electronic absorption spectra in organic solvents; format: physicochemical
Procedure: (§1) The absorption and emission spectra of dyes solutions (in the range of 10^−6 to 10^−5 M) were recorded on CM 2203 spectrofluorometer (SOLAR) in a 10 mm of absorbing layer thickness at T = 25 ± 0.1 °C. The fluorescence quantum yield (φ), the fluorescence lifetime (τ), the rate constants of radiative processes (krad), and-radiative deactivation (knr) were obtained to use by the standard procedure. The fluorescence quantum yields (φ) of compounds were measured using the standard method (using standard Rhodamine 6G). The φ and τ errors were 10–15 %. The Stokes shift ( ΔλSt ) was calculated by the formula: […]

[2] = Luminescent characteristics (fluorescence) in organic solvents; format: physicochemical; conditions: for λmaxfl: λex 470 nm
Procedure: as §1

[3] = Photobleaching (photodegradation) under UV irradiation at 365 nm; format: physicochemical; conditions: for kobs∙106 of photodegradation / half-life: UV 365 nm; for half-life: read-out: t1/2 of photodegradation (converted)
Procedure: The photofading was carried out in quartz cells. The BODIPY solutions in cyclohexane (toluene, 1-octanol, DMSO with c = ~1·10^−5 mol·L^−1) were irradiated with monochromatic light (mercury lamp 250 W with a light filter Carl Zeiss JENA, at λ = 365 nm and room temperature). The area of the light flux was 2.02 cm^2 at a specific power W365 = 4.04 mW·cm^−2 of the UV lamp. The irreversible bleaching of the luminophores at the absorption peak was monitored as a function of time. The EAS of the dye solution was recorded at equal intervals of irradiation (through 5–20 min) on a spectrofluorometer SM2203 in the 300–600 nm wavelength range. The half-life (t1/2) was defined as the time during which the chromophore is destroyed by 50%. The error in determining of t1/2 is 3–5%.
The observed photooxidation rate constants (kobs) were determined by the equation ln(At/A0) = kobs∙t, where A0 and At are the initial and current optical density at the maximum of the long-wavelength absorption band, respectively, and t is the time of irradiation of the sample with UV light.

[4] = system: laboratory mice erythrocytes; test: Hemolytic activity (erythrotoxicity); format: cell-based; conditions: 20 µM, entire incubation period 5 h, 37 °C, PBS pH 7.4
Procedure: A 0.5% (v/v) suspension of laboratory mice erythrocytes in phosphate-buffered saline (PBS, pH 7.4) was used. The hemolytic activity (erythrotoxicity) of the compounds 2 and 6 was assessed by the degree of erythrocyte hemolysis 1, 3, and 5 h after the addition of solutions of the test compounds in DMSO (final concentration 20 μM). The erythrocyte suspension was incubated in a thermostatic shaker Biosan ES-20 with slow stirring at 37 °C temperature for 5 h. After 1, 3, and 5 h, an aliquot was taken, centrifuged, the degree of hemolysis was determined by the hemoglobin content in the supernatant on a Thermo Spectromic Genesys 20 spectrophotometer at λ = 541 nm. The percentage of hemolysis was calculated relative to the total hemolysis of the sample.

[5] = system: laboratory mice erythrocytes; test: Penetration into RBC (fluorescence of hemolysates and of residual medium); format: cell-based; conditions: 20 μM, 10, 30, 60 min incubation, RBC washed three times with PBS
Procedure: To assess the rate of penetration of the BODIPY 2 and its conjugate with a thioterpenoid 6 into RBC, the compounds were added to a suspension of erythrocytes (final concentration 20 μM) and incubated in a thermostatic shaker Biosan ES-20 with slow stirring at 37 °C. After 10, 30, and 60 min, an aliquot was taken and centrifuged to separate erythrocytes from the incubation medium containing the BODIPY 2 or conjugate 6. Erythrocytes were washed three times with PBS, hemolyzed by adding H2O, DMSO was added, and the fluorescence spectra of hemolysates were studied using a Fluorat-02-Panorama spectrofluorometer (Lumex, Saint Petersburg, Russia). The binding of the BODIPY 2 or conjugate 6 to cells was judged from the fluorescence intensity of the corresponding compounds in hemolysates. DMSO was added to the medium (PBS) remaining after cell incubation, and the corresponding fluorescence spectra were also analyzed. Its intensity was used to judge the residual content of the studied compounds in PBS.

[6] = range over the solvents studied

- ε, molar absorption coefficient ([1]; 1-butanol): 86745 L/mol/cm
- λmaxabs S0→S1 ([1]; 1-butanol): 506 nm
- λmaxabs S0→S2 ([1]; 1-butanol): 364–375 nm
- ε, molar absorption coefficient ([1]; 1-octanol): 84427 L/mol/cm
- λmaxabs S0→S1 ([1]; 1-octanol): 508 nm
- λmaxabs S0→S2 ([1]; 1-octanol): 362–376 nm
- ε, molar absorption coefficient ([1]; 1-propanol): 87096 L/mol/cm
- λmaxabs S0→S1 ([1]; 1-propanol): 503 nm
- λmaxabs S0→S2 ([1]; 1-propanol): 362–375 nm
- ε, molar absorption coefficient ([1]; DMF): 85857 L/mol/cm
- λmaxabs S0→S1 ([1]; DMF): 503 nm
- λmaxabs S0→S2 ([1]; DMF): 364–375 nm
- ε, molar absorption coefficient ([1]; DMSO): 82190 L/mol/cm
- λmaxabs S0→S1 ([1]; DMSO): 504 nm
- λmaxabs S0→S2 ([1]; DMSO): 363–376 nm
- ε, molar absorption coefficient ([1]; chloroform): 89125 L/mol/cm
- λmaxabs S0→S1 ([1]; chloroform): 508 nm
- λmaxabs S0→S2 ([1]; chloroform): 363–374 nm
- ε, molar absorption coefficient ([1]; cyclohexane): 91201 L/mol/cm
- λmaxabs S0→S1 ([1]; cyclohexane): 509 nm
- λmaxabs S0→S2 ([1]; cyclohexane): 366–376 nm
- ε, molar absorption coefficient ([1]; ethanol): 81283 L/mol/cm
- λmaxabs S0→S1 ([1]; ethanol): 505 nm
- λmaxabs S0→S2 ([1]; ethanol): 363–374 nm
- ε, molar absorption coefficient ([1]; toluene): 82444 L/mol/cm
- λmaxabs S0→S1 ([1]; toluene): 511 nm
- λmaxabs S0→S2 ([1]; toluene): 365–373 nm
- ΔλSt, Stokes shift ([2]; 1-butanol): 10 nm
- φ, fluorescence quantum yield ([2]; 1-butanol): 0.932
- λmaxfl ([2]; 1-butanol): 516 nm
- ΔλSt, Stokes shift ([2]; 1-octanol): 8 nm
- φ, fluorescence quantum yield ([2]; 1-octanol): 0.941
- λmaxfl ([2]; 1-octanol): 516 nm
- ΔλSt, Stokes shift ([2]; 1-propanol): 10 nm
- φ, fluorescence quantum yield ([2]; 1-propanol): 0.920
- λmaxfl ([2]; 1-propanol): 513 nm
- ΔλSt, Stokes shift ([2]; DMF): 10 nm
- φ, fluorescence quantum yield ([2]; DMF): 0.990
- λmaxfl ([2]; DMF): 513 nm
- ΔλSt, Stokes shift ([2]; DMSO): 12 nm
- φ, fluorescence quantum yield ([2]; DMSO): 0.963
- λmaxfl ([2]; DMSO): 516 nm
- Stokes shift, range ([2]; all solvents): 6–12 nm
- ΔλSt, Stokes shift ([2]; chloroform): 8 nm
- φ, fluorescence quantum yield ([2]; chloroform): 0.903
- λmaxfl ([2]; chloroform): 516 nm
- φ, fluorescence quantum yield ([2]; cyclohexane): 1.0
- λmaxfl ([2]; cyclohexane): 514 nm
- ΔλSt, Stokes shift ([2]; ethanol): 7 nm
- φ, fluorescence quantum yield ([2]; ethanol): 0.879
- λmaxfl ([2]; ethanol): 512 nm
- ΔλSt, Stokes shift ([2]; toluene): 8 nm
- φ, fluorescence quantum yield ([2]; toluene): 0.825
- λmaxfl ([2]; toluene): 519 nm
Structure (SMILES): CC1=CC(C)=[N+]2C1=Cc1c(C)cc(C)n1[B-]2(F)F [Compound 7, 4,4-Difluoro-1,3,5,7-tetramethyl-4-bora-3a,4a-diaza-s-indacene, reference compound]

- kobs∙106 of photodegradation ([3]; 1-octanol): 3.1 ± 0.3 s⁻¹
- kobs∙106 of photodegradation ([3]; DMSO): 27.7 ± 0.3 s⁻¹
- kobs∙106 of photodegradation ([3]; cyclohexane): 2.9 ± 0.3 s⁻¹
- half-life ([3]; solution in 1-octanol, 1-octanol): 82.3 h
- half-life ([3]; solution in DMSO, DMSO): 8.3 h
- half-life ([3]; solution in cyclohexane, cyclohexane): 88.6 h
- half-life ([3]; solution in toluene, toluene): 40.5 h
- half-life increase / photodestruction rate constant decrease compared to 7 ([3]; studied solvents): 1.5–2.2 times
- kobs∙106 of photodegradation ([3]; toluene): 5.5 ± 0.3 s⁻¹
- ε, molar absorption coefficient ([1]; 1-butanol): 74136 L/mol/cm
- λmaxabs S0→S1 ([1]; 1-butanol): 498 nm
- λmaxabs S0→S2 ([1]; 1-butanol): 356–363 nm
- ε, molar absorption coefficient ([1]; 1-octanol): 72443 L/mol/cm
- λmaxabs S0→S1 ([1]; 1-octanol): 499 nm
- λmaxabs S0→S2 ([1]; 1-octanol): 357–364 nm
- ε, molar absorption coefficient ([1]; 1-propanol): 74948 L/mol/cm
- λmaxabs S0→S1 ([1]; 1-propanol): 498 nm
- λmaxabs S0→S2 ([1]; 1-propanol): 359–369 nm
- ε, molar absorption coefficient ([1]; DMF): 76709 L/mol/cm
- λmaxabs S0→S1 ([1]; DMF): 497 nm
- λmaxabs S0→S2 ([1]; DMF): 357–363 nm
- ε, molar absorption coefficient ([1]; DMSO): 66069 L/mol/cm
- λmaxabs S0→S1 ([1]; DMSO): 497 nm
- λmaxabs S0→S2 ([1]; DMSO): 356–363 nm
- ε, molar absorption coefficient ([1]; chloroform): 74131 L/mol/cm
- λmaxabs S0→S1 ([1]; chloroform): 501 nm
- λmaxabs S0→S2 ([1]; chloroform): 358–363 nm
- ε, molar absorption coefficient ([1]; cyclohexane): 87724 L/mol/cm
- λmaxabs S0→S1 ([1]; cyclohexane): 500 nm
- λmaxabs S0→S2 ([1]; cyclohexane): 359–364 nm
- ε, molar absorption coefficient ([1]; ethanol): 72444 L/mol/cm
- λmaxabs S0→S1 ([1]; ethanol): 497 nm
- λmaxabs S0→S2 ([1]; ethanol): 356–361 nm
- ε, molar absorption coefficient ([1]; toluene): 79432 L/mol/cm
- λmaxabs S0→S1 ([1]; toluene): 501 nm
- λmaxabs S0→S2 ([1]; toluene): 360–368 nm
- ΔλSt, Stokes shift ([2]; 1-butanol): 15 nm
- φ, fluorescence quantum yield ([2]; 1-butanol): 0.966
- λmaxfl ([2]; 1-butanol): 513 nm
- ΔλSt, Stokes shift ([2]; 1-octanol): 16 nm
- φ, fluorescence quantum yield ([2]; 1-octanol): 0.989
- λmaxfl ([2]; 1-octanol): 515 nm
- ΔλSt, Stokes shift ([2]; 1-propanol): 16 nm
- φ, fluorescence quantum yield ([2]; 1-propanol): 0.956
- λmaxfl ([2]; 1-propanol): 514 nm
- ΔλSt, Stokes shift ([2]; DMF): 15 nm
- φ, fluorescence quantum yield ([2]; DMF): 0.836
- λmaxfl ([2]; DMF): 512 nm
- ΔλSt, Stokes shift ([2]; DMSO): 15 nm
- φ, fluorescence quantum yield ([2]; DMSO): 0.769
- λmaxfl ([2]; DMSO): 512 nm
- ΔλSt, Stokes shift ([2]; chloroform): 15 nm
- φ, fluorescence quantum yield ([2]; chloroform): 0.908
- λmaxfl ([2]; chloroform): 516 nm
- ΔλSt, Stokes shift ([2]; cyclohexane): 12 nm
- φ, fluorescence quantum yield ([2]; cyclohexane): 0.999
- λmaxfl ([2]; cyclohexane): 512 nm
- fluorescence quenching ([2]; electron-donating media): 16–24%
- ΔλSt, Stokes shift ([2]; ethanol): 13 nm
- φ, fluorescence quantum yield ([2]; ethanol): 0.910
- increase of fluorescence quantum yield in the homologous series of alcohols ([2]; ethanol, 1-propanol, 1-butanol, 1-octanol): ~ 8%
- λmaxfl ([2]; ethanol): 510 nm
- constants of radiative processes (krad) [2, 6]: 5.96–8.33 × 10^7 s^−1
- fluorescence lifetime [2, 6]: 10.2–16.0 ns
- ΔλSt, Stokes shift ([2]; toluene): 17 nm
- φ, fluorescence quantum yield ([2]; toluene): 0.991
- λmaxfl ([2]; toluene): 518 nm
- emission band maxima λmaxfl, range ([2]; λex = 470 nm, all solvents): 510–519 nm
Structure (SMILES): COC(=O)CCCC1=C2C(C)=CC(C)=[N+]2[B-](F)(F)n2c(C)cc(C)c21 [Compound 2]
- hemolysis of RBC (erythrotoxicity) [4]: did not exceed the spontaneous level
- penetration into erythrocytes (fluorescence of RBC hemolysates) [5]: practically not detected in hemolysates

— publication PMC9138141, “Design, Spectral Characteristics, Photostability, and Possibilities for Practical Application of BODIPY FL-Labeled Thioterpenoid” (Bioengineering, 2022)
